The results in this text go back to patent US7074743B1, “Herbicidal composition comprising 4-iodo-2-[3-(4-methoxy-6-methyl-1,3,5-triazin-2-yl)ureidosulfonyl]benzoic esters” (priority 1995, dated 2006).

Holding throughout (assay type): in vivo
In one data set the test system is Mercurialis annua. Description: Herbicidal action on MERAN, visual scoring vs untreated, post-emergence 2-4 leaf stage. The following applies: Table 11. How it is done: (§1) The examples given below were performed in the greenhouse and, in some cases, in field trials.
(§2) The herbicides, or combinations, were applied in cereals after the weeds had emerged naturally using plot sprayers. After application, the results, such as damage to the crop plants and effect on broad-leaved weeds/grass weeds were assessed by means of visual scoring. The herbicidal action was assessed qualitatively and quantitatively by comparing untreated and treated plots on the basis of the effect on plant growth and the development of chloroses and necroses down to the complete destruction of the weeds (0–100%). The application was effected when the crop plants and weeds were in the 2–4 leaf stage. The test was evaluated approximately 4 weeks after application.
(§3) In the greenhouse experiments, the crop plants and broadleaved weeds/grass weeds were grown in No. 13 pots and treated in the 2–4 leaf stage. The pots were subsequently placed in the greenhouse under good growth conditions (temperature, atmospheric humidity, water supply).
(§4) The assessments were carried out similarly to those in the field trials, i.e. visual scoring of the treated plants in comparison with untreated control variants. These assessments were carried out 3 weeks after applying the test preparations and their combinations. The experiments had been set up in two replications.
(§5) To assess the combination effects, the activities of the individual components were added and compared with the activity of the mixtures in equal doses. It was frequently observed that the efficacies of the combinations exceeded the total of the individual activities.
(§6) In cases with less clear effects, the expected value was calculated using Colby's formula and compared with the empirically determined result. The calculated efficacy of a combination which is expected in theory is determined is using S.R. Colby's formula: “Calculation of synergistic and antagonistic responses of herbicide combinations”, Weeds 15 (1967), pages 20 to 22.
(§7) [formula] where • X=% damage caused by herbicide A at a rate of ×kg a.i./ha; • Y=% damage caused by herbicide B at a rate of y kg a.i./ha; • Z=% damage caused by a further herbicide C at a rate of z kg a.i./ha; • E=expected value, i.e. expected damage caused by herbicides A+B (or A+B+C) at x+y (or x+y+z) kg a.i./ha.
(§8) Synergistic effects were assumed to be when the empirical value exceeded the expected value. In the case of combinations with individual components with the same active substances, comparisons via the total formula were also possible.

A further data set concerns Avena fatua. The data set is described as follows: Herbicidal action on AVEFA, visual scoring vs untreated, post-emergence 2-4 leaf stage. The following applies: Table 11. How it is done:
as §1, §2, §3, §4, §5, §6, §7, §8

A further data set has as its system Gallium aparine. The data set is described as follows: Herbicidal action on GALAP, visual scoring vs untreated, post-emergence 2-4 leaf stage. To be noted: Table 11. On the procedure: as §1, §2, §3, §4, §5, §6, §7, §8
A further data set relates to Ambrosia elatior. The data set is described as follows: Herbicidal action on AMBEL, visual scoring vs untreated, post-emergence 2-4 leaf stage. To be noted: Table 12; 4.5 g of ai/ha. How it is done:
as §1, §2
(§9) In the greenhouse experiments, the crop plants and broadleaved weeds/grass weeds were grown in No. 13 pots and treated in the 2–4 leaf stage. […]
(§10) In cases with less clear effects, the expected value was calculated using Colby's formula and compared with the empirically determined result. The calculated efficacy of a combination which is expected in theory is determined is using S.R. Colby's formula: “Calculation of synergistic and antagonistic responses of herbicide combinations”, Weeds 15 (1967), pages 20 to 22. […]

Another data set deals with Zea mays. Description: Damage to crop plant ZEAMA, visual scoring vs untreated. The following applies: Table 12; 4.5 g of ai/ha. How it is done: as §1, §2, §3, §4
A further data set relates to Abuthilon theophrastis. Description: Herbicidal action on ABUTHE, visual scoring vs untreated, post-emergence 2-4 leaf stage. The following applies: Table 12; 4.5 g of ai/ha. On the procedure: as §1, §2, §9, §10

Regarding `CP(=O)(O)CC[C@@H](N)C(=O)O` (racemic) [B49), 4-[hydroxy(methyl)phosphinoyl]-DL-homoalanine], the MERAN % control in the data set on Mercurialis annua (150 g of a.i./ha) is listed as 65%; in the data set on Mercurialis annua (300 g of a.i./ha), 78%; in the data set on Mercurialis annua (450 g of a.i./ha), 90%. Further, the AVEFA % control in the data set on Avena fatua (150 g of a.i./ha) is given as 60%; in the data set on Avena fatua (300 g of a.i./ha), 70%; in the data set with Avena fatua (450 g of a.i./ha) it was 80%. For the same molecule, the GALAP % control in the data set on Gallium aparine (150 g of a.i./ha) was 55%; in the data set on Gallium aparine (300 g of a.i./ha) it was 73%; with Gallium aparine (450 g of a.i./ha), 85%.
`CCOC(=O)C(Cl)Cc1cc(-n2nc(C)n(C(F)F)c2=O)c(F)cc1Cl` (stereo not drawn) [B31), carfentrazone-ethyl]: the AMBEL % control in the data set on Ambrosia elatior came to 0%. Further, in the data set with Zea mays, the ZEAMA % damage is recorded as 5%. Besides, in the data set with Abuthilon theophrastis, the ABUTHE % control is 60%.
